In patent US20070054848A1, “Composition and method for nerve regeneration” (priority 2003, published 2007):
“Also recorded” adds a separate entry of the source. Where no end group is shown, it is not given here. The star is where a group is joined. TAT = PTD (protein transduction domain) peptide fused to the peptide; Myristoyl = CCCCCCCCCCCCCC(=O)*

Key:
[1] = test system: cerebellar granule neurons; experiment: Fluorescence Ca2+ imaging (Oregon-green 488BAPTA-1 and Fura Red); type: cell-based; details: p7 rat cerebellar granule neurons
[2] = test system: cerebellar granule neurons from P7 rats; experiment: Neurite outgrowth assay, cerebellar neurons; type: cell-based, rat; details: P7 rat cerebellar granule neurons
RhoA [3] = experiment: Affinity-precipitation of GTP-RhoA in cerebellar neurons; type: cell-based, mice; details: post-natal cerebellar neurons
Protocol: 293 cells were transfected with pcDNA3 vectors containing wild type RhoA whose NH2-terminus is tagged with HA (Yamashita, T. et al., Neuron. 24:585-593, 1999) and/or full-length human p75 by lipofection using Lipofectamine 2000 (Gibco BRL). Cerebellar neurons from P9 mice were isolated as described previously (Cai et. al, Neuron, 22:89-101, 1999). Cells were lysed in 50 mM Tris (pH 7.5), 1% Triton X-100, 0.5% sodium deoxycholate, 0.1% SDS, 500 mM NaCl, 10 mM MgCl2, with leupeptin and aprotinin, each at 10 μg/ml. Cell lysates were clarified by centrifugation at 13,000×g at 4° C. for 10 min, and the supernatants were incubated with the 20 μg of GST-Rho binding domain of Rhotekin beads (Upstate Biotech.) at 4° C. for 45 min. The beads were washed 4 times with washing buffer (50 mM Tris (pH 7.5) containing 1% Triton X-100, 150 mM NaCl, 10 mM MgCl2, 10 μg/ml each of leupeptin and aprotinin). Bound Rho proteins were detected by Western blotting using a monoclonal antibody against RhoA (Santa Cruz Biotechnology).
Amino-terminally FLAG-tagged human p75 or the deletion mutants of p75 ICD were cloned into pcDNA3.1 expression plasmid, and were transfected with 293T cells. […] Bound Rho proteins were detected by Western blotting using a monoclonal antibody against RhoA (Santa Cruz Biotechnology).

[4] = target: T1, interaction of p75 with Rho GDI (Homo sapiens, UniProt P08138); experiment: Co-immunoprecipitation of p75 with Rho GDI or RhoA in transfected N1E-115 cells; type: cell-based; details: N1E-115 cells transfected with FLAG-tagged p75; Nogo peptide 4 μM, MAG-Fc 25 μg/ml, NGF 100 ng/ml
T1 construct: expressed in transfected cells; host or cells: N1E-115 cells
T1 sequence (P08138 29-427): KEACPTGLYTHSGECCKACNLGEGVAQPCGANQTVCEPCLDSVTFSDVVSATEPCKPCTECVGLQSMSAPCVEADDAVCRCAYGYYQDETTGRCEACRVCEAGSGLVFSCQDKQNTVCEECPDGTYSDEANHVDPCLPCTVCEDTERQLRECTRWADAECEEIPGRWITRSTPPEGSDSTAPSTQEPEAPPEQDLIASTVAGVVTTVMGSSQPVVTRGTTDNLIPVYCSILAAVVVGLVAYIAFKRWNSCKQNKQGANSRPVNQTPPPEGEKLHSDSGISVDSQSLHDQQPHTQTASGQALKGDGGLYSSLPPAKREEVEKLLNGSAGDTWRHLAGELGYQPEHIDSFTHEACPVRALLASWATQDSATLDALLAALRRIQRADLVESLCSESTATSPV

[5] = target: catalytic domain of Rho-kinase (GST-CAT) (Bos taurus, UniProt Q28021); experiment: In vitro binding assay of p21 and Rho-kinase (GST-CAT); details: GST-CAT; aa 6-553
spinal cord [6] = experiment: Spinal cord injury in rats, p21 / TAT-bound p21, BBB score; type: in vivo, rat; details: 200 g male Wistar rats; osmotic pump for 2 weeks; observed from day 2 for 6 weeks
DRG neurons from P1 rats = experiment: Neurite outgrowth assay, dissociated DRG neurons; type: cell-based, rat
[7] = test system: E12 chick dorsal root ganglia explants; experiment: Growth cone collapse assay; type: cell-based; details: chick E12 DRG explants; myelin 0.1 to 10 ng/μl
Protocol: Explants of E12 chick dorsal root ganglia were incubated for 24 hours on plastic slides precoated with 100 μg/ml poly-L-lysine, and were treated for 30 minutes with soluble CNS myelin extracts (Sigma) at the indicated concentrations (MAG-Fc (25 μg/ml) or the Nogo peptide (4 μM)). Explants were fixed in 4% (wt/vol) paraformaldehyde, and were stained with fluorescence-labeled phalloidin (Sigma).

RhoA [8] = experiment: Affinity-precipitation of GTP-RhoA; type: cell-based; details: P7 rat cerebellar neurons
Protocol: Cells were lysed in 50 mM Tris, pH 7.5, 1% Triton X-100, 0.5% sodium deoxycholate, 0.1% SDS, 500 mM NaCl, 10 mM MgCl2, with leupeptin and aprotinin, each at 10 μg/ml (Tang S. et al., J. Cell Biol., 138, 1355-1366 (1997)). Cell lysates were clarified by centrifugation at 13,000 g at 4° C. for 10 min, and the supernatants were incubated with the 20 μg of GST-Rho binding domain of Rhotekin beads (Upstate Biotechnology) at 4° C. for 45 min. The beads were washed 4 times with washing buffer (50 mM Tris, pH 7.5 containing 1% Triton X-100, 150 mM NaCl, 10 mM MgCl2, 10 μg/ml leupeptin, and 10 μg/ml aprotinin). Bound Rho proteins were detected by Western blotting using a monoclonal antibody against RhoA (Santa Cruz Biotechnology).
To address this, we measured RhoA activity in the neurons. Using the RhoA-binding domain of the effector protein Rhotekin (Ren, X. D. et al., EMBO J., 18, 578-585 (1999)), the GTP-bound form of RhoA can be affinity-precipitated. […] The PKC inhibitor had no effect on the Rho activity induced by MAG-Fc or the Nogo peptide. Thus, promotion of neurite outgrowth of the cerebellar neurons by inhibition of PKC was not mediated by the block of RhoA activation, showing that PKC is not upstream of RhoA.

nerve regeneration = experiment: Similar experiments with modified amino acid agents (Example 2-8)
Protocol: Similar experiments were carried out using Pep5 in which alanine was added to the C terminus of the sequence (SEQ ID NO: 2), antibodies for the extracellular domain of p75, and p75 in which alanine was replaced with valine at amino acid 423 in positions 273-427 of SEQ ID NO: 4.

DRG neurons = experiment: Neurite outgrowth assay, DRG neurons; type: cell-based, mice; details: added exogenously at 100 nM
cerebellar neurons = experiment: Neurite outgrowth assay, post-natal cerebellar neurons; type: cell-based, mice; details: post-natal cerebellar neurons
[9] = target: T2, interaction of p75 with Rho GDI (Mus musculus, UniProt Q9Z0W1); experiment: Co-immunoprecipitation of endogenous p75 and Rho GDI in cerebellar neurons; type: cell-based, mice; details: dissociated cerebellar neurons
T2 construct: endogenous in cells; host or cells: primary cerebellar neurons from P9 mice
T2 sequence (Q9Z0W1 32-427): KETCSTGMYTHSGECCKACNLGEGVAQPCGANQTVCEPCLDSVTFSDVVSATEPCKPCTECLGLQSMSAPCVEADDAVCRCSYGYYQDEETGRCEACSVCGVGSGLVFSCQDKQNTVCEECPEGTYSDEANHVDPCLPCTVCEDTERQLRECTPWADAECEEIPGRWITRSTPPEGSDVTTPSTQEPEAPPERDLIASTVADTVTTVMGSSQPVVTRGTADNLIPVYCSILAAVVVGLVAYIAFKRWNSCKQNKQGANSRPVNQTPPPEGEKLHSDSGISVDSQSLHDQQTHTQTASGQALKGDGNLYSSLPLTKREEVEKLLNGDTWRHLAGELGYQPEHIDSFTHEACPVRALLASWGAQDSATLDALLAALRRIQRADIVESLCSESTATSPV

spinal cord [10] = experiment: Spinal cord injury in rats (dorsal half dissected), BBB score; type: in vivo, rat; details: 200 g male Wistar rats; continuous osmotic pump to the injured site
spinal cord [11] = experiment: Similar spinal cord experiments in mice (Example 2-7); type: in vivo
p75 = target: T3, p75 (Mus musculus, UniProt Q9Z0W1); experiment: Co-precipitation of p75 with recombinant GST-Pep5; type: binding; details: lysates prepared from post-natal cerebellum
T3 construct: was incubated with lysates prepared from post-natal cerebellum that abundantly express p75; from tissue; host or cells: post-natal cerebellum
T3 sequence (Q9Z0W1 32-427): T2 sequence (Q9Z0W1 32-427)
Description: As all the myelin-derived inhibitors of axonal regeneration identified so far act on neurons through p75, intervening with p75 signaling after injury to the central nervous system may alleviate myelin-dependent inhibition of axonal regeneration. […] The specific peptide ligand to the p75 HD was previously obtained from a combinatorial library (Ilag, L. L. et al., Biochem Biophys Res Commun. 255, 104-109 (1999)). This ligand is a 15 amino acid residue peptide (Pep5; […] (SEQ ID NO: 2)) and the binding site was mapped by nuclear magnetic resonance spectroscopy onto a hydrophobic patch framed by helices 5 and 6. […] The present inventors first confirmed whether p75 associates with Pep5. Glutathione S-transferase-fusion protein containing Pep5 (GST-Pep5) was incubated with lysates prepared from post-natal cerebellum that abundantly express p75. […] Therefore, Pep5 has a potential to disrupt the signal mediated by p75 in vitro. As the peptide ligand must gain entry into the cell if it is to act directly on the p75 HD in vivo, the present inventors generated Pep5 fused with the amino-terminal 11 amino acid protein transduction domain (PTD domain) from the human immunodeficiency virus protein, TAT (TAT-Pep5) (Schwarze, S. R., Ho, A., Vocero-Akbani, A. & Dowdy, S. F., Science 285, 1569-1572 (1999)). […] Thus, Pep5 may be used as an inhibitor of Rho GDI association with p75.

Chain of catalytic domain of Rho-kinase (GST-CAT) (Q28021 6-553 limits assumed): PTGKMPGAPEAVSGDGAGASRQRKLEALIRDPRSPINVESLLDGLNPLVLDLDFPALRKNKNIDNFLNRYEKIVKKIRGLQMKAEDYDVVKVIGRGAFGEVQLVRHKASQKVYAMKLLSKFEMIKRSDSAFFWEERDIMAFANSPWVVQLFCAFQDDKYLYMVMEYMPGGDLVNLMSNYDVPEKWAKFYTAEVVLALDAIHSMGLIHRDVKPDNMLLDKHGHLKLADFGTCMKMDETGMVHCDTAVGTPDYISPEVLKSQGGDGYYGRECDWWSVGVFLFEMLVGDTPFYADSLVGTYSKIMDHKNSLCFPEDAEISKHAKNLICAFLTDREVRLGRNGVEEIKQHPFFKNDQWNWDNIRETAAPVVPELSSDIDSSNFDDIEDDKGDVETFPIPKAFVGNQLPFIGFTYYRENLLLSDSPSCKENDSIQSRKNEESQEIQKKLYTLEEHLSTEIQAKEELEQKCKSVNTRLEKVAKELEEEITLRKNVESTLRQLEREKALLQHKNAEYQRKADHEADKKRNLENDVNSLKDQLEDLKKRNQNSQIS

Compound: COc1ccc2c(c1)CC[C@@H]1[C@@H]2CC[C@]2(C)[C@@H](NCCCCCCN3C(=O)C=CC3=O)CC[C@@H]12 [U73122]
- effect on Ca2+ elevation induced by MAG [1]: blocked
- modulation of neurite outgrowth inhibition by MAG-Fc or the Nogo peptide [2]: neither PTX nor U73122 modulated

Compound: NGF: Nerve growth factor [reference compound]
- RhoA activity (RhoA [3]; wild type, MAG-Fc 25 μg/ml, Nogo peptide 4 μM): rapidly inhibits RhoA activity
- interaction of p75 with Rho GDI as well as RhoA [4]: abolished the interaction

Compound: p21: Recombinant full-length p21 (1-164 in SEQ ID NO: 23), cyclin-dependent protein kinase inhibitor
- in vitro interaction with Rho-kinase [5]: bound to each other in vitro
- functional recovery after spinal cord injury (BBB score) (spinal cord [6]): an effect was not sufficiently observed

Compound: PKC inhibitor: cell permeable PKC inhibitor 20-28 (Calbiochem), specific membrane permeable PKC inhibitor peptide (Myristoyl-FARKGALRQ; not fully specified (C-terminus); UniProt P17252 20-28, looked up, fragment)
- neurite outgrowth (substance alone) ([2]; MAG-Fc 25 μg/ml, Nogo peptide 4 μM): no effect on the growth
- modulation of MAG-Fc effect on neurite outgrowth (DRG neurons from P1 rats): no modulating effect
- effect on growth cone collapse mediated by myelin [7]: completely reversed
- effect on Rho activity induced by MAG-Fc or the Nogo peptide (RhoA [8]): no effect

Compound: Pep5 in which alanine was added to the C terminus: Pep5 in which alanine was added to the C terminus of the sequence (SEQ ID NO: 2) (CFFRGGFFNHNPRYC)
- nerve regeneration (nerve regeneration): nerve regeneration was similarly observed

Compound: TAT-CFFRGGFFNHNPRYC ({TAT}-CFFRGGFFNHNPRYC; cysteine pairing not given here; also: TAT (PTD) sequence not fixed) [TAT-Pep5, Pep5 fused with the amino-terminal 11 amino acid protein transduction domain from HIV TAT]
- responsiveness of DRG neurons to MAG (25 μg/ml) and the Nogo peptide (4 μM), neurite outgrowth (DRG neurons): abolished their responsiveness
- inhibitory effect of MAG (25 μg/ml) and the Nogo peptide (4 μM) on neurite outgrowth (cerebellar neurons): efficiently silenced the inhibitory effect
- activation of RhoA induced by MAG-Fc or the Nogo peptide (RhoA [3]; TAT-Pep5 (1 μM)): inhibited the activation of RhoA; also recorded: completely abolishes these effects
- interaction of p75 with Rho GDI induced by MAG-Fc [9]: significantly inhibited; also recorded: diminished
- nerve regeneration after spinal cord injury (spinal cord [10]): nerve regeneration was significantly observed
- nerve regeneration (spinal cord [11]): nerve regeneration was similarly observed

Compound: GST-Pep5: Glutathione S-transferase-fusion protein containing Pep5
- co-precipitation of p75 (p75): revealed the presence of a protein corresponding to p75
